Results: PubChem BioAssay (NCI)
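Tested at 5 concentrations; 48 h exposure; 96-well plates; endpoints linearly interpolated, else capped at highest concentration. The concentration for 50% growth inhibition is given as GI50. TGI: concentration producing complete growth inhibition.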

Columns and labels:
Experiment in all cases: NCI tumour cell line growth inhibition, 48 h
CAKI-1 renal = system: CAKI-1 renal
EKVX NSCLC = system: EKVX NSCLC
K-562 leukemia = system: K-562 leukemia
M14 melanoma = system: M14 melanoma
OVCAR-4 ovarian = system: OVCAR-4 ovarian
SK-MEL-28 melanoma = system: SK-MEL-28 melanoma
SK-MEL-5 melanoma = system: SK-MEL-5 melanoma
SW-620 colon = system: SW-620 colon
UACC-62 melanoma = system: UACC-62 melanoma
NCI-H522 lung = system: NCI-H522 lung

| Compound | TGI (CAKI-1 renal) [µM] | TGI (EKVX NSCLC) [µM] | TGI (K-562 leukemia) [µM] | TGI (M14 melanoma) [µM] | TGI (OVCAR-4 ovarian) [µM] | TGI (SK-MEL-28 melanoma) [µM] | TGI (SK-MEL-5 melanoma) [µM] | TGI (SW-620 colon) [µM] | TGI (UACC-62 melanoma) [µM] | TGI (NCI-H522 lung) [µM] | GI50 (CAKI-1 renal) [µM] | GI50 (EKVX NSCLC) [µM] | GI50 (K-562 leukemia) [µM] | GI50 (M14 melanoma) [µM] | GI50 (NCI-H522 lung) [µM] | GI50 (OVCAR-4 ovarian) [µM] | GI50 (SK-MEL-28 melanoma) [µM] | GI50 (SK-MEL-5 melanoma) [µM] | GI50 (SW-620 colon) [µM] | GI50 (UACC-62 melanoma) [µM] |
| --- | --- | --- | --- | --- | --- | --- | --- | --- | --- | --- | --- | --- | --- | --- | --- | --- | --- | --- | --- | --- |
| FC1OC2OC1C(OCc1ccccc1)C(OCc1ccccc1)C2OCc1ccccc1 (centres undefined) | > 100 | > 100 | 75.1 | > 100 | > 100 | > 100 | > 100 | > 100 | > 100 | – | – | – | – | – | – | – | – | – | – | – |
| CC(=O)C1C(=O)N(C(C)C)C[C@@H]2CCC(=O)C[C@H]12 (some centres undefined) | > 100 | > 100 | > 100 | > 100 | > 100 | > 100 | > 100 | > 100 | > 100 | > 100 | – | – | – | – | – | – | – | – | – | – |
| Cc1ccc(C(C)C)cc1NC(=O)Nc1ccc([N+](=O)[O-])cc1 | 5.62 | 8.01 | 7.74 | 7.28 | 13 | 10.4 | 2.9 | 10.7 | 10.2 | 3.97 | 2.1 | 2.37 | 2.96 | 2.45 | 1.38 | 3.44 | 2.78 | 1.55 | 2.89 | 1.81 |
| CCOP(=O)(Nc1ccc2oc(=O)c3ccccc3c2c1)OCC | > 100 | > 100 | > 100 | > 100 | > 100 | > 100 | > 100 | > 100 | > 100 | > 100 | – | – | – | – | – | – | – | – | – | – |
| COc1cc2cc3c4c(cc(OC)c(OC)c4c2cc1OC)CCN3C(=O)CCC(=O)NCCCN(C)C | > 100 | > 100 | > 100 | 32 | > 100 | > 100 | 28.2 | > 100 | > 100 | 45.8 | – | – | – | – | – | – | – | – | – | – |
| Cc1nc(N)nc2ccccc12 | > 100 | > 100 | > 100 | > 100 | > 100 | > 100 | > 100 | > 100 | > 100 | > 100 | – | – | – | – | – | – | – | – | – | – |
| CNC(=O)CN(CC(N)=O)C(N)=O | > 100 | > 100 | > 100 | > 100 | > 100 | > 100 | > 100 | > 100 | > 100 | > 100 | – | – | – | – | – | – | – | – | – | – |
| N[C@@H]1CCCC[C@@H]1N.O=P([O-])([O-])CN(CP(=O)([O-])[O-])CP(=O)([O-])[O-].[Pt+2] | > 100 | – | > 100 | > 100 | > 100 | > 100 | > 100 | > 100 | > 100 | – | > 100 | – | > 100 | > 100 | – | > 100 | > 100 | > 100 | > 100 | > 100 |
| COc1nc(NC2OC(COC(C)=O)C(OC(C)=O)C(OC(C)=O)C2OC(C)=O)c(-c2csc(N)n2)c(=O)n1C (centres undefined) | > 100 | – | > 100 | > 100 | > 100 | > 100 | > 100 | > 100 | > 100 | > 100 | – | – | – | – | – | – | – | – | – | – |
| Cc1cc(C(O)CN(C)C)cc2c1ccc1cc(C(C)C)ccc12 (centres undefined) | 3.11 | 17.9 | 4.88 | 4.03 | 4.84 | 3.36 | 3.16 | 3.5 | – | 3.72 | 1.42 | 3.39 | 2.15 | 2.02 | 1.84 | 2.33 | 1.88 | 1.76 | 1.79 | – |
| COc1cccc(/C=C/C(=O)c2cc3c(N)c(C(=O)Nc4cccc5ccccc45)sc3nc2C)c1 | 6.34 | > 50 | > 50 | 4.69 | > 50 | – | 3.09 | 3.1 | 4.74 | 3.06 | 1.6 | 1.87 | 0.562 | 1.31 | 0.435 | 2.65 | – | 1.21 | 0.538 | 1.09 |
| CCCCCCCCCCCCOP(N)(=O)OCCCCCCCCCCCC | – | > 100 | > 100 | > 100 | – | > 100 | – | > 100 | > 100 | > 100 | – | – | – | – | – | – | – | – | – | – |
| C[C@@H]1C[C@]2(C[C@@H](C)C3[C@@H](CC4(C)[C@@H]5CCC6C(C)(C)OC(=O)C=C[C@]67C[C@@]5(CC[C@]34C)OO7)O2)OC1=O (some centres undefined) | – | – | > 100 | > 100 | 64.4 | > 100 | > 100 | > 100 | > 100 | 90.3 | – | – | – | – | – | – | – | – | – | – |
| C#CCN(Cc1ccc2nc(N)[nH]c(=O)c2c1)c1ccc(C(=O)NC(CCC(=O)O)C(=O)O)cc1 (centres undefined) | > 100 | > 100 | – | > 100 | – | > 100 | > 100 | > 100 | – | – | – | – | – | – | – | – | – | – | – | – |
| COc1cccc(NC(=O)C(=O)C(C(C)=O)c2nc3ccc(Cl)cc3[nH]c2=O)c1 (centres undefined) | > 100 | > 100 | > 100 | > 100 | > 100 | > 100 | > 100 | > 100 | > 100 | – | – | – | – | – | – | – | – | – | – | – |
| O=C(Cc1ccccc1)NN1C(=O)/C(=C\c2ccc(O)cc2)SC1=Nc1ccccc1 | – | > 100 | > 100 | > 100 | > 100 | > 100 | > 100 | > 100 | > 100 | – | – | – | – | – | – | – | – | – | – | – |
| CCOC(=O)[C@H]1Nc2ccccc2C2c3ccccc3CC21 (some centres undefined) | > 100 | – | > 100 | > 100 | > 100 | > 100 | 54.6 | > 100 | > 100 | > 100 | – | – | – | – | – | – | – | – | – | – |
| C/C(CC(=O)N(C(C)C)C(C)C)=N\NC(=O)c1ccncc1 | – | > 100 | > 100 | > 100 | > 100 | > 100 | > 100 | > 100 | > 100 | > 100 | – | – | – | – | – | – | – | – | – | – |
| CC1(C)CC[C@]2(C(N)=O)CC[C@]3(C)C(=CC[C@@H]4[C@@]5(C)C/C(=C/c6ccncc6)C(=O)C(C)(C)[C@@H]5CC[C@]43C)[C@@H]2C1 | – | 9.46 | 6.71 | 4.62 | > 100 | 3.39 | 3.27 | 4.62 | 3.34 | 7.76 | – | 2.44 | 2.28 | 2.05 | 2.28 | 3 | 1.81 | 1.77 | 2.04 | 1.61 |
